# Active and inactive are the calls of the source. The rule behind the calls is not given here.
# Tests used:
# [1] = Toxicity in female KM mouse assessed as effect on hematocrit in blood at upto 20 mg/kg, sc measured after 24 hrs; format: organism-based; settings: in vivo
# Cell membrane [2] = experiment: Induction of cell membrane disruption in methicillin-resistant Staphylococcus aureus clinical isolate 16 assessed as intact cells (Q3 region) at 4 ug/ml measured after 2 hrs by SYTO-9 and PI staining based flow cytometry analysis (reference value: 96.0%); format: cell membranes; settings: dose 4.0 µg/ml
# Staphylococcus aureus [3] = experiment: Antibacterial activity against methicillin-resistant Staphylococcus aureus clinical isolate 16 measured after 18 hrs in presence of peptidoglycan by checkerboard broth dilution method; format: functional, organism-based
# Staphylococcus aureus [4] = experiment: Antibacterial activity against methicillin-resistant Staphylococcus aureus clinical isolate 16 infected in female KM mouse skin abscess model assessed as log reduction in bacterial load at 5 mg/kg, sc measured after 24 hrs (reference value: 8.508 log10CFU/g); format: functional
# [5] = Toxicity in female KM mouse assessed as effect on histopathological abnormalities in liver at 20 mg/kg, sc measured after 24 hrs by H and E staining based analysis; format: organism-based; settings: in vivo
# Staphylococcus aureus [6] = experiment: Antibacterial activity against methicillin-resistant Staphylococcus aureus clinical isolate 21 measured after 18 hrs by CLSI based broth microdilution method; format: functional
# [7] = Toxicity in female KM mouse assessed as effect on histopathological abnormalities in kidney at 20 mg/kg, sc measured after 24 hrs by H and E staining based analysis; format: organism-based; settings: in vivo
# Staphylococcus aureus [8] = experiment: Antibacterial activity against methicillin-resistant Staphylococcus aureus clinical isolate 16 infected in female KM mouse skin abscess model assessed as reduction in bacterial load at 10 mg/kg, sc measured after 24 hrs relative to control; format: functional; set-up: scale not given: the % may be the effect or the level left
# Staphylococcus aureus [9] = experiment: Antibacterial activity against methicillin-resistant Staphylococcus aureus clinical isolate 16 infected in female KM mouse skin abscess model assessed as reduction in IL-6 level at 5 to 10 mg/kg, sc measured after 24 hrs by ELISA method; format: functional, organism-based; settings: dose 5-10 mg/kg
# Staphylococcus aureus [10] = experiment: Antibacterial activity against methicillin-resistant Staphylococcus aureus clinical isolate 17 measured after 18 hrs by CLSI based broth microdilution method; format: functional
# [11] = Toxicity in female KM mouse assessed as effect on kidney at 20 mg/kg, sc measured after 24 hrs by H and E staining based analysis; format: organism-based; settings: in vivo
# Staphylococcus aureus [12] = experiment: Antibacterial activity against methicillin-resistant Staphylococcus aureus clinical isolate 16 measured after 18 hrs in presence of phosphatidylglycerol by checkerboard broth dilution method; format: functional
# [13] = Toxicity in female KM mouse assessed as effect on UREA at upto 20 mg/kg, sc measured after 24 hrs by biochemical test; format: organism-based; settings: in vivo
# [14] = Toxicity in female KM mouse assessed as effect on lung at 20 mg/kg, sc measured after 24 hrs by H and E staining based analysis; format: organism-based; settings: in vivo
# [15] = Toxicity in female KM mouse assessed as effect on histopathological abnormalities in heart at 20 mg/kg, sc measured after 24 hrs by H and E staining based analysis; format: organism-based; settings: in vivo
# Escherichia coli = experiment: Antibacterial activity against Escherichia coli ATCC 25922 measured after 18 hrs by CLSI based broth microdilution method; format: functional
# Staphylococcus aureus [16] = experiment: Antibacterial activity against methicillin-resistant Staphylococcus aureus clinical isolate 16 infected in female KM mouse skin abscess model assessed as log reduction in bacterial load at 10 mg/kg, sc measured after 24 hrs (reference value: 8.508 log10CFU/g); format: functional
# Staphylococcus aureus [17] = experiment: Antibacterial activity against methicillin-resistant Staphylococcus aureus clinical isolate 16 infected in female KM mouse skin abscess model assessed as effect on skin abscess at 10 mg/kg, sc measured after 24 hrs; format: functional, organism-based
# Cell membrane [18] = experiment: Induction of cell membrane disruption in methicillin-resistant Staphylococcus aureus clinical isolate 16 assessed as intact cells (Q3 region) at 8 ug/ml measured after 2 hrs by SYTO-9 and PI staining based flow cytometry analysis (reference value: 96.0%); format: cell membranes; settings: dose 8.0 µg/ml
# Cell membrane [19] = experiment: Induction of cell membrane disruption in methicillin-resistant Staphylococcus aureus clinical isolate 16 assessed as dead cells (Q1 region) at 8 ug/ml measured after 2 hrs by SYTO-9 and PI staining based flow cytometry analysis (reference value: 0%); format: cell membranes; settings: dose 8.0 µg/ml
# [20] = Toxicity in female KM mouse assessed as effect on CREA at upto 20 mg/kg, sc measured after 24 hrs by biochemical test; format: organism-based; settings: in vivo
# [21] = Toxicity in female KM mouse skin abscess model infected with methicillin-resistant Staphylococcus aureus clinical isolate 16 assessed as histological abnormalities in spleen at 5 to 10 mg/kg, sc measured after 24 hrs by H and E staining based analysis; format: organism-based; settings: in vivo, dose 5-10 mg/kg
# [22] = Toxicity in female KM mouse assessed as adverse effect on back skin at 5 to 20 mg/kg, sc measured after 24 hrs; format: organism-based; settings: in vivo, dose 5-20 mg/kg
# Cell membrane [23] = experiment: Induction of cytoplasmic membrane depolarization in methicillin-resistant Staphylococcus aureus clinical isolate 16 assessed as increase in fluorescence intensity at 8 to 32 time MIC measured for 10 mins by DiSC3-5 dye based fluorescence method
# Staphylococcus aureus [24] = experiment: Antibacterial activity against methicillin-resistant Staphylococcus aureus clinical isolate 11 measured after 18 hrs by CLSI based broth microdilution method; format: functional
# [25] = Toxicity in female KM mouse assessed as effect on albumin at upto 20 mg/kg, sc measured after 24 hrs by biochemical test; format: organism-based; settings: in vivo
# Cell membrane [26] = experiment: Induction of cell membrane disruption in methicillin-resistant Staphylococcus aureus clinical isolate 16 assessed as dead cells (Q1 region) at 32 ug/ml measured after 2 hrs by SYTO-9 and PI staining based flow cytometry analysis (reference value: 0%); format: cell membranes; settings: dose 32.0 µg/ml
# [27] = Toxicity in female KM mouse skin abscess model infected with methicillin-resistant Staphylococcus aureus clinical isolate 16 assessed as effect on heart at 5 to 10 mg/kg, sc measured after 24 hrs by H and E staining based analysis; format: organism-based; settings: in vivo, dose 5-10 mg/kg
# [28] = Toxicity in female KM mouse assessed as effect on red blood cell at upto 20 mg/kg, sc measured after 24 hrs; format: organism-based; settings: in vivo
# [29] = Toxicity in female KM mouse skin abscess model infected with methicillin-resistant Staphylococcus aureus clinical isolate 16 assessed as effect on lung at 5 to 10 mg/kg, sc measured after 24 hrs by H and E staining based analysis; format: organism-based; settings: in vivo, dose 5-10 mg/kg
# Staphylococcus aureus [30] = experiment: Antibacterial activity against methicillin-resistant Staphylococcus aureus clinical isolate 20 measured after 18 hrs by CLSI based broth microdilution method; format: functional
# Cell membrane [31] = experiment: Induction of cell membrane disruption in methicillin-resistant Staphylococcus aureus clinical isolate 16 assessed as intact cells (Q3 region) at 64 ug/ml measured after 2 hrs by SYTO-9 and PI staining based flow cytometry analysis (reference value: 96.0%); format: cell membranes; settings: dose 64.0 µg/ml
# Cell membrane [32] = experiment: Induction of cell membrane disruption in methicillin-resistant Staphylococcus aureus clinical isolate 16 assessed as dead cells (Q1 region) at 16 ug/ml measured after 2 hrs by SYTO-9 and PI staining based flow cytometry analysis (reference value: 0%); format: cell membranes; settings: dose 16.0 µg/ml
# Staphylococcus aureus [33] = experiment: Antibacterial activity against methicillin-resistant Staphylococcus aureus clinical isolate 23 measured after 18 hrs by CLSI based broth microdilution method; format: functional
# Cell membrane [34] = experiment: Disruption of cell membrane in methicillin-resistant Staphylococcus aureus clinical isolate 16 assessed as increase in blue fluorescence at 8 times MIC measured after 4 hrs by DAPI and PI staining based laser confocal microscopy based analysis; format: cell membranes
smiles,measurement,setting,value
CCCCCCNC(=O)C[N+](C)(C)CCCCCOc1ccc2ccc(=O)oc2c1CC=C(C)C.[Br-],Activity,[1],Non-Toxic
same,Activity,Cell membrane [2],76.9%
same,Activity,Staphylococcus aureus [3],Active
same,Activity,Staphylococcus aureus [4],2.962 log10CFU/g
same,Activity,[5],Non-Toxic
same,MIC,Staphylococcus aureus [6],2 µg/mL
same,Activity,[7],Non-Toxic
same,Activity,Staphylococcus aureus [8],99.998%
same,Activity,Staphylococcus aureus [9],Active
same,MIC,Staphylococcus aureus [10],1 µg/mL
same,Activity,[11],Non-Toxic
same,MIC,Staphylococcus aureus [12],64 µg/mL
same,Activity,[13],Non-Toxic
same,Activity,[14],Non-Toxic
same,Activity,[15],Non-Toxic
same,MIC,Escherichia coli,32 µg/mL
same,Activity,Staphylococcus aureus [16],4.458 log10CFU/g
same,Activity,Staphylococcus aureus [17],inactive
same,Activity,Cell membrane [18],45.3%
same,Activity,Cell membrane [19],0.34%
same,Activity,[20],Non-Toxic
same,Activity,[21],Non-Toxic
same,Activity,[22],Non-Toxic
same,Activity,Cell membrane [23],Active
same,MIC,Staphylococcus aureus [24],1 µg/mL
same,Activity,[25],Non-Toxic
same,Activity,Cell membrane [26],61.7%
same,Activity,[27],Non-Toxic
same,Activity,[28],Non-Toxic
same,Activity,[29],Non-Toxic
same,MIC,Staphylococcus aureus [30],2 µg/mL
same,Activity,Cell membrane [31],0%
same,Activity,Cell membrane [32],0.68%
same,MIC,Staphylococcus aureus [33],2 µg/mL
same,Activity,Cell membrane [34],Active
